This is an account of results in paper PMC2248166, “Quantitative peptide binding motifs for 19 human and mouse MHC class I molecules derived using positional scanning combinatorial peptide libraries” (Immunome Research, 2008).

The term IC50 denotes the concentration that gives 50% inhibition. Read a high IC50 as weaker potency in that assay.

Where a SMILES comes first, the peptide text is derived from it.

The target in this test is HLA A*3001 (Homo sapiens, UniProt P04439, D140H/D185E/E176W/F33S/G80R/H175R/K168Q/R138E/R41S). Kind of test: biochemical. It is filed as binding.
Sequence of HLA A*3001 (P04439 25-365 limits assumed, stated change not applied): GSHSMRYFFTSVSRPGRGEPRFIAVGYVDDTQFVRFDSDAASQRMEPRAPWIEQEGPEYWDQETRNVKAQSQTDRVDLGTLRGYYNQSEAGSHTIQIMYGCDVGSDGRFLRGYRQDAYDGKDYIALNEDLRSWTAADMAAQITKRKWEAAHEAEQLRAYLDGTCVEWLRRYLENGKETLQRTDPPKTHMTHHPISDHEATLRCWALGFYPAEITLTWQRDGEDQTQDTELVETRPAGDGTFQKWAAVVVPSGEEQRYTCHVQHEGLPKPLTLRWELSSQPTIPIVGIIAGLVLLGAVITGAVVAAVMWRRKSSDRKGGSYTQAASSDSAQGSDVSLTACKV

For `CC[C@H](C)[C@H](NC(=O)[C@H](C)NC(=O)[C@H](CCCNC(=N)N)NC(=O)[C@@H](NC(=O)[C@@H](N)CCCNC(=N)N)[C@@H](C)O)C(=O)N[C@@H](CC(N)=O)C(=O)N[C@@H](CCCCN)C(=O)N[C@@H](Cc1ccc(O)cc1)C(=O)N[C@@H](CO)C(=O)O` [3102.0141] (H-RTRAINKYS-OH), 13 nM corresponded to half-maximal inhibition (IC50). `CC[C@H](C)[C@H](NC(=O)[C@H](Cc1ccc(O)cc1)NC(=O)[C@H](CC(C)C)NC(=O)[C@@H]1CCCN1C(=O)[C@H](CC(=O)O)NC(=O)[C@H](CCCNC(=N)N)NC(=O)[C@@H](NC(=O)[C@@H](N)CCSC)[C@@H](C)O)C(=O)N[C@@H](Cc1ccc(O)cc1)C(=O)O` [3102.0147] (H-MTRDPLYIY-OH) gave an IC50 of 17 nM.

On to `CC[C@H](C)[C@H](NC(=O)[C@H](CCCCN)NC(=O)[C@H](Cc1c[nH]cn1)NC(=O)[C@@H](N)CCCCN)C(=O)N[C@@H](Cc1ccccc1)C(=O)N[C@@H](CO)C(=O)N1CCC[C@H]1C(=O)N[C@@H](Cc1ccccc1)C(=O)N[C@@H](CCCCN)C(=O)O` [3102.0267] (H-KHKIFSPFK-OH), for which the IC50 stood at 0.89 nM.

With `CC[C@H](C)[C@H](NC(=O)[C@H](CCCNC(=N)N)NC(=O)[C@@H](NC(=O)[C@H](CC(=O)O)NC(=O)[C@H](CCCCN)NC(=O)[C@@H](NC(=O)[C@@H](N)CCCNC(=N)N)[C@@H](C)O)[C@@H](C)O)C(=O)N[C@@H](CCCCN)C(=O)N[C@@H](C)C(=O)O` [3102.0205] (H-RTKDTRIKA-OH), inhibition was half-maximal at 0.2 nM (IC50). Molecule `CSCC[C@H](N)C(=O)N[C@@H](CC(C)C)C(=O)N[C@@H](CCCNC(=N)N)C(=O)N[C@@H](Cc1ccccc1)C(=O)N[C@@H](C)C(=O)N[C@@H](CC(N)=O)C(=O)N1CCC[C@H]1C(=O)N[C@@H](CC(C)C)C(=O)N[C@@H](CO)C(=O)O` [3102.0173] (H-MLRFANPLS-OH) gave an IC50 of 0.17 nM. For `CC[C@H](C)[C@H](NC(=O)[C@H](CCCCN)NC(=O)[C@H](CO)NC(=O)[C@@H](NC(=O)[C@@H](NC(=O)[C@H](CCCCN)NC(=O)[C@H](CCCNC(=N)N)NC(=O)[C@@H](NC(=O)[C@@H](N)CCCCN)C(C)C)[C@@H](C)CC)[C@@H](C)CC)C(=O)O` [3102.0153] (H-KVRKIISKI-OH) the value was 27 nM; for `CC(C)[C@H](NC(=O)[C@@H](N)Cc1c[nH]cn1)C(=O)N[C@@H](Cc1ccc(O)cc1)C(=O)N[C@@H](CC(=O)O)C(=O)N[C@@H](Cc1ccccc1)C(=O)N[C@@H](CCC(=O)O)C(=O)N1CCC[C@H]1C(=O)N[C@@H](Cc1ccc(O)cc1)C(=O)N[C@@H](Cc1ccc(O)cc1)C(=O)O` [3102.0068] (H-HVYDFEPYY-OH), 27 nM; for `CC[C@H](C)[C@H](NC(=O)[C@@H](NC(=O)[C@H](Cc1ccccc1)NC(=O)[C@H](CCSC)NC(=O)[C@@H](NC(=O)[C@@H](N)CCCCN)C(C)C)C(C)C)C(=O)N[C@@H](CCCNC(=N)N)C(=O)N[C@@H](Cc1ccccc1)C(=O)N[C@@H](CCCCN)C(=O)O` [3102.0133] (H-KVMFVIRFK-OH), 0.6 nM.

Take `CC(C)C[C@H](NC(=O)[C@H](C)NC(=O)[C@H](Cc1ccc(O)cc1)NC(=O)[C@H](CCCNC(=N)N)NC(=O)[C@@H](NC(=O)[C@@H](N)CC(C)C)[C@@H](C)O)C(=O)N[C@@H](Cc1c[nH]cn1)C(=O)NCC(=O)N[C@@H](CCCCN)C(=O)O` [3102.0179] (H-LTRYALHGK-OH): it took 0.25 nM to reach half-maximal inhibition (IC50). Regarding `CC[C@H](C)[C@H](NC(=O)[C@H](CCCCN)NC(=O)[C@@H](NC(=O)[C@@H](N)CCCCN)[C@@H](C)O)C(=O)N[C@@H](CC(=O)O)C(=O)N[C@H](C(=O)N[C@H](C(=O)N[C@@H](Cc1ccccc1)C(=O)N[C@@H](C)C(=O)O)[C@@H](C)CC)[C@@H](C)CC` [3102.0285] (H-KTKIDIIFA-OH), the IC50 came to 10 nM.

`CSCC[C@H](N)C(=O)N[C@H](C(=O)N[C@@H](CCCNC(=N)N)C(=O)N[C@@H](CC(C)C)C(=O)N[C@H](C(=O)N[C@H](C(=O)N[C@@H](CCC(N)=O)C(=O)NCC(=O)N[C@@H](CC(C)C)C(=O)O)[C@@H](C)O)[C@@H](C)O)C(C)C` [3102.0012] (H-MVRLTTQGL-OH): the half-inhibitory concentration (IC50) came to 8.3 nM. For `CC[C@H](C)[C@H](NC(=O)[C@H](Cc1ccccc1)NC(=O)[C@H](CCCCN)NC(=O)[C@H](Cc1ccc(O)cc1)NC(=O)[C@H](Cc1ccccc1)NC(=O)[C@H](C)NC(=O)[C@H](CCCCN)NC(=O)[C@@H](NC(=O)[C@@H](N)Cc1c[nH]cn1)C(C)C)C(=O)O` [3102.0138] (H-HVKAFYKFI-OH) the value was 0.35 nM. For `CC[C@H](C)[C@H](NC(=O)[C@H](CC(N)=O)NC(=O)CNC(=O)[C@H](CC(N)=O)NC(=O)[C@H](CCCCN)NC(=O)[C@@H](NC(=O)[C@H](C)N)[C@@H](C)O)C(=O)N[C@@H](Cc1ccccc1)C(=O)N[C@H](C(=O)O)C(C)C` [3102.0093] (H-ATKNGNIFV-OH) the value was 3.9 nM; for `C[C@H](NC(=O)[C@H](CCCNC(=N)N)NC(=O)[C@H](Cc1ccccc1)NC(=O)[C@H](CCCCN)NC(=O)[C@@H]1CCCN1C(=O)[C@@H]1CCCN1C(=O)[C@H](CCCCN)NC(=O)[C@H](Cc1ccccc1)NC(=O)[C@@H](N)Cc1c[nH]cn1)C(=O)O` [3102.0279] (H-HFKPPKFRA-OH), 8.9 nM. For the molecule `CC[C@H](C)[C@H](NC(=O)[C@@H](N)CCCCN)C(=O)N[C@@H](CCCCN)C(=O)N[C@@H](CO)C(=O)N1CCC[C@H]1C(=O)N[C@H](C(=O)N[C@@H](Cc1ccc(O)cc1)C(=O)N[C@@H](Cc1ccc(O)cc1)C(=O)N[C@@H](CCCCN)C(=O)O)[C@@H](C)CC` [3102.0014] (H-KIKSPIYYK-OH), the IC50 is 0.93 nM. For `CC[C@H](C)[C@H](NC(=O)[C@@H]1CCCN1C(=O)CNC(=O)[C@H](CCSC)NC(=O)[C@H](CCCCN)NC(=O)[C@H](CCC(N)=O)NC(=O)[C@@H](N)CCCCN)C(=O)N[C@@H](Cc1ccc(O)cc1)C(=O)N[C@@H](C)C(=O)O` [3102.0136] (H-KQKMGPIYA-OH) the value was 22 nM; for `CC[C@H](C)[C@H](NC(=O)[C@@H](NC(=O)[C@@H](NC(=O)[C@H](CC(=O)O)NC(=O)[C@H](CCCCN)NC(=O)[C@@H](NC(=O)[C@H](C)N)C(C)C)C(C)C)[C@@H](C)O)C(=O)N[C@H](C(=O)N[C@@H](CCCCN)C(=O)O)[C@@H](C)O` [3102.0067] (H-AVKDVTITK-OH), 2.2 nM; for `CC[C@H](C)[C@H](NC(=O)[C@H](Cc1ccc(O)cc1)NC(=O)[C@@H](NC(=O)[C@@H](N)CCCCN)C(C)C)C(=O)N[C@@H](CC(N)=O)C(=O)N[C@@H](Cc1c[nH]cn1)C(=O)N1CCC[C@H]1C(=O)N[C@@H](Cc1ccccc1)C(=O)N[C@@H](CCSC)C(=O)O` [3102.0124] (H-KVYINHPFM-OH), 0.52 nM. With `CC(C)[C@H](NC(=O)[C@@H](N)CCCNC(=N)N)C(=O)N[C@@H](Cc1c[nH]cn1)C(=O)N[C@@H](CC(=O)O)C(=O)N[C@H](C(=O)N[C@@H](CC(N)=O)C(=O)N[C@@H](C)C(=O)N[C@H](C(=O)N[C@@H](CCCCN)C(=O)O)[C@@H](C)O)[C@@H](C)O` [3102.0197] (H-RVHDTNATK-OH), the IC50 was found to be 7.7 nM.

The molecule `CC[C@H](C)[C@H](N)C(=O)N[C@@H](CO)C(=O)N[C@@H](CCCNC(=N)N)C(=O)N[C@@H](CO)C(=O)N[C@@H](CCCNC(=N)N)C(=O)N[C@@H](CCCNC(=N)N)C(=O)N[C@@H](CC(C)C)C(=O)N[C@@H](Cc1ccccc1)C(=O)N[C@@H](C)C(=O)O` [3102.0065] (H-ISRSRRLFA-OH) displayed an IC50 of 2.2 nM. In turn, `CSCC[C@H](NC(=O)[C@@H](N)CCCCN)C(=O)N[C@@H](CCCNC(=N)N)C(=O)N[C@@H](CCCNC(=N)N)C(=O)N[C@@H](CCC(=O)O)C(=O)N[C@@H](CCCNC(=N)N)C(=O)N[C@@H](C)C(=O)N[C@@H](C)C(=O)N[C@@H](Cc1ccc(O)cc1)C(=O)O` [3102.0231] (H-KMRRERAAY-OH) yielded a concentration for half-maximal inhibition (IC50) of 3 nM. Then `CC[C@H](C)[C@H](NC(=O)[C@H](CC(N)=O)NC(=O)[C@H](CCCNC(=N)N)NC(=O)[C@@H](NC(=O)[C@H](CCCNC(=N)N)NC(=O)[C@H](CO)NC(=O)CN)C(C)C)C(=O)N[C@H](C(=O)N[C@@H](C)C(=O)O)[C@@H](C)CC` [3102.0112] (H-GSRVRNIIA-OH), with 8.9 nM; and `CC(C)C[C@H](NC(=O)[C@H](Cc1ccc(O)cc1)NC(=O)[C@H](CC(C)C)NC(=O)[C@H](Cc1ccccc1)NC(=O)[C@H](C)NC(=O)[C@H](Cc1ccccc1)NC(=O)[C@H](CCCNC(=N)N)NC(=O)[C@H](Cc1ccc(O)cc1)NC(=O)[C@@H](N)CCCNC(=N)N)C(=O)O` [3102.0049] (H-RYRFAFLYL-OH), with 0.17 nM; and `CC(C)C[C@H](NC(=O)[C@H](CCCCN)NC(=O)[C@H](Cc1ccccc1)NC(=O)[C@@H](N)CCCCN)C(=O)N[C@H](C(=O)N[C@@H](CC(C)C)C(=O)N1CCC[C@H]1C(=O)N[C@@H](CC(N)=O)C(=O)N[C@@H](CCCCN)C(=O)O)[C@@H](C)O` [3102.0261] (H-KFKLTLPNK-OH), with 12 nM. Regarding `CC(C)C[C@H](NC(=O)[C@H](CCC(N)=O)NC(=O)CNC(=O)[C@H](CC(=O)O)NC(=O)[C@H](CCCNC(=N)N)NC(=O)[C@@H](NC(=O)[C@@H](N)[C@@H](C)O)C(C)C)C(=O)N[C@@H](CCC(=O)O)C(=O)N[C@H](C(=O)O)C(C)C` [3102.0228] (H-TVRDGQLEV-OH), half-maximal inhibition (IC50) was put at 13 nM. Consider `CSCC[C@H](NC(=O)[C@H](CCCCN)NC(=O)[C@H](CCCCN)NC(=O)[C@H](Cc1ccc(O)cc1)NC(=O)[C@H](CCCNC(=N)N)NC(=O)[C@H](C)NC(=O)[C@@H](N)CCCNC(=N)N)C(=O)N[C@@H](CC(C)C)C(=O)N[C@@H](CCCCN)C(=O)O` [3102.0172] (H-RARYKKMLK-OH), for which the IC50 worked out at 1 nM. Then `CC[C@H](C)[C@H](NC(=O)[C@H](Cc1ccc(O)cc1)NC(=O)CNC(=O)CNC(=O)[C@@H](NC(=O)[C@H](Cc1ccccc1)NC(=O)[C@H](CCCNC(=N)N)NC(=O)[C@H](C)NC(=O)[C@@H](N)CCCNC(=N)N)[C@@H](C)CC)C(=O)O` [3102.0226] (H-RARFIGGYI-OH), with 0.26 nM; and `CC[C@H](C)[C@H](NC(=O)[C@H](CC(C)C)NC(=O)[C@H](CO)NC(=O)[C@@H](NC(=O)[C@H](CCCNC(=N)N)NC(=O)[C@@H](NC(=O)[C@@H](N)CCCNC(=N)N)C(C)C)[C@@H](C)CC)C(=O)N[C@@H](Cc1ccc(O)cc1)C(=O)N[C@@H](CC(C)C)C(=O)O` [3102.0249] (H-RVRISLIYL-OH), with 0.092 nM.
